This test deals with hippocampal neural cells. Nature of the test: 3H-thymidine uptake in cultured hippocampal neural cells. The format is cell-based, rat. The settings on record: 24 hours, 37° C. On the procedure: Biochemical analyses of 3H-thymidine uptake, as a measure of DNA synthesis, were used as the experimental vehicle to confirm the morphological observations described in examples 1 and 2. […] Thus, the range for the neurogenic effect of THP on neural cells is quite is sensitive and quite broad.
For these experiments, cultured hippocampal neural cells, derived from embryonic day 18 rat fetuses, were allowed to adhere to polylysine coated plastic cover-slips for 40 min in serum containing medium. Following adhesion, neurons were exposed to […] 3H-thymidine in the presence or absence of 100-500 nM THP and allowed to incubate at 37° C. for 24 hours in the absence or presence of the indicated steroids. Data are expressed as mean+SEM, *p<. 05,**p<0.01, ***p<0.001.
The time course of THP-induced 3H-thymidine incorporation in hippocampal neuronal cells is shown in FIG. 9 where cultured hippocampal nerve cells, derived from embryonic day 18 rat fetuses, were allowed to adhere to polylysine coated plastic cover-slips for 40 min in serum containing medium. Following adhesion, serum containing medium in the presence or absence of 10-250 nM THP plus […] 3H-thymidine and allowed to incubate at 37 for 1, 8 or 24 hours. Data are expressed as mean±SEM, *p<0.05,**p<0.01,***p<0.001.
Consider 5α,3α-pregnan-diol, for which the “effect on 3H-thymidine incorporation (steroid specificity)” value (“effect on 3H-thymidine incorporation” for short) was “significant decrease”.

For 5α,3α-pregnan-triol, the “effect on 3H-thymidine incorporation” value is “significant decrease”.

Regarding 5α, 3P-pregnen-3-one, the “effect on 3H-thymidine incorporation” value is on record as “no effect”.

In the case of `CC(=O)[C@H]1CC[C@H]2[C@@H]3CC[C@H]4C[C@@H](O)CC[C@]4(C)[C@H]3CC[C@]12C` [5cc, 3ss-THP], the “effect on 3H-thymidine incorporation” value is given as “no effect”.

With `CC(=O)[C@H]1CC[C@H]2[C@@H]3CC[C@@H]4C[C@@H](O)CC[C@]4(C)[C@H]3CC[C@]12C` [5ss, 3ss-THP], the “effect on 3H-thymidine incorporation” value is on record as “no effect”.

As for `CC(=O)[C@H]1CC[C@H]2[C@@H]3CCC4=CC(=O)CC[C@]4(C)[C@H]3CC[C@]12C` [Progesterone], the “effect on 3H-thymidine incorporation” value was “modest increase”.

As for pregnenolone sulfate, the “effect on 3H-thymidine incorporation” value was “significant decrease”.
